According to patent publication US4746736A, “Carbapenem antibiotics” (priority 1986, dated 1988):
≈ marks a conversion by molar mass, not a printed value. Where two headings read alike, the source gives them in different places.

What was measured:
[1] = test system: P. rettgeri A22424; experiment: In vitro MIC by tube dilution, P. rettgeri A22424; assay type: cell-based
[2] = test system: K. pneumoniae A20468; experiment: In vitro MIC by tube dilution, K. pneumoniae A20468; assay type: cell-based
[3] = test system: S. aureus A-9606 (Pen-res.); experiment: In vitro MIC by tube dilution, S. aureus A-9606 (Pen-res.); assay type: cell-based
[4] = test system: S. aureus A-9537; experiment: In vitro MIC by tube dilution, S. aureus A-9537; assay type: cell-based
[5] = test system: S. marcescens A20019; experiment: In vitro MIC by tube dilution, S. marcescens A20019; assay type: cell-based
[6] = test system: P. aeruginosa A-9843A; experiment: In vitro MIC by tube dilution, P. aeruginosa A-9843A; assay type: cell-based
[7] = test system: E. cloacae A-9659; experiment: In vitro MIC by tube dilution, E. cloacae A-9659; assay type: cell-based
[8] = test system: P. morganii A15153; experiment: In vitro MIC by tube dilution, P. morganii (M. morganii) A15153; assay type: cell-based
[9] = test system: S. aureus A15097 (Meth-res.); experiment: In vitro MIC by tube dilution, S. aureus A15097 (Meth-res.); assay type: cell-based; conditions: Staphylococcus aureus
[10] = test system: K. pneumoniae A-9664; experiment: In vitro MIC by tube dilution, K. pneumoniae A-9664; assay type: cell-based
[11] = test system: P. mirabilis A-9900; experiment: In vitro MIC by tube dilution, P. mirabilis A-9900; assay type: cell-based
[12] = test system: E. cloacae A-9656; experiment: In vitro MIC by tube dilution, E. cloacae A-9656; assay type: cell-based
[13] = test system: S. pyogenes A9604; experiment: In vitro MIC by tube dilution, S. pyogenes A9604; assay type: cell-based
[14] = test system: E. coli A20341-1; experiment: In vitro MIC by tube dilution, E. coli A20341-1; assay type: cell-based
[15] = test system: E. coli A15119; experiment: In vitro MIC by tube dilution, E. coli A15119; assay type: cell-based
[16] = test system: S. pneumoniae A-9585; experiment: In vitro MIC by tube dilution, S. pneumoniae A-9585; assay type: cell-based
[17] = test system: H. influenzae A-9833; experiment: In vitro MIC by tube dilution, H. influenzae A-9833; assay type: cell-based; conditions: Haemophilus influenzae, A9833
[18] = test system: H. influenzae A21518; experiment: In vitro MIC by tube dilution, H. influenzae A21518; assay type: cell-based; conditions: Haemophilus influenzae
[19] = test system: S. faecalis A20688; experiment: In vitro MIC by tube dilution, S. faecalis A20688; assay type: cell-based
[20] = test system: P. aeruginosa A21213; experiment: In vitro MIC by tube dilution, P. aeruginosa A21213; assay type: cell-based; conditions: P. aeruginosa A21213
[21] = Blood levels in mice after intramuscular administration; conditions: 20 mg/kg i.m., mice (compiled table)
Text: Compounds were solubilized in 0.1 M phosphate buffer pH 7.
Values are from a single test; 4 mice used per compound.
Compounds were solubilized in 0.1 M phosphate buffer, pH 7.
Values based on a single test; 4 mice per compound.

[22] = test system: P. vulgaris A21559; experiment: In vitro MIC by tube dilution, P. vulgaris A21559; assay type: cell-based
[23] = Providencia rettgeri, A22424, P. rettgeri A22424, read-out: MIC
[24] = Klebsiella pneumoniae, A20468, K. pneumoniae A20468, read-out: MIC
[25] = Serratia marcescens, read-out: MIC
[26] = Klebsiella pneumoniae, A9664, read-out: MIC
[27] = Proteus mirabilis, A9900, P. mirabilis A-9900, read-out: MIC
[28] = Enterobacter cloacae, A9656, E. cloacae A-9656, read-out: MIC
[29] = Staphylococcus aureus, S. aureus A-9606 (Pen-res), read-out: MIC
[30] = Streptococcus pyogenes, A9604, S. pyogenes A-9604, read-out: MIC
[31] = Staphylococcus aureus, A9537, S. aureus A-9537 +50% serum, read-out: MIC
[32] = Staphylococcus aureus, A9537, S. aureus A-9537, no serum, read-out: MIC
[33] = Pseudomonas aeruginosa, A9843A, P. aeruginosa A-9843a, read-out: MIC
[34] = Enterobacter cloacae, A9659, E. cloacae A-9659, read-out: MIC
[35] = Escherichia coli, A203411, read-out: MIC
[36] = Morganella morganii, A15153, M. morganii A15153, read-out: MIC
[37] = Streptococcus pneumoniae, A9585, S. pneumoniae A-9585, read-out: MIC

`C[C@@H](O)[C@H]1C(=O)N2C(C(=O)[O-])=C(SCCc3cc[n+](C)cc3)C[C@H]12` [Example 2] showed an MIC [1, 23] of 0.13 µg/mL (≈ 0.373 µM), an MIC [2, 24] of 0.13 µg/mL (≈ 0.373 µM) and an MIC ([3]; Staphylococcus aureus, S. aureus A-9606 (Pen-res.), overnight 37° C., read-out: MIC) of 0.008 µg/mL (≈ 0.023 µM). For the same compound, the MIC ([4]; Staphylococcus aureus, A9537, S. aureus A-9537 + 50% serum, overnight 37° C., read-out: MIC) was 0.016 µg/mL, the MIC ([4]; Staphylococcus aureus, A9537, S. aureus A-9537, no serum, overnight 37° C., read-out: MIC) was 0.004 µg/mL (≈ 0.0115 µM) and the MIC [5, 25] was 0.03 µg/mL (≈ 0.0861 µM). It also gave an MIC ([6]; Pseudomonas aeruginosa, A9843A, P. aeruginosa A-9843A, read-out: MIC) of 8 µg/mL (≈ 23 µM), an MIC ([7]; Enterobacter cloacae, A9659, E. cloacae A9659, read-out: MIC) of 0.13 µg/mL (≈ 0.373 µM) and an MIC ([8]; Morganella morganii, A15153, P. morganii A15153, read-out: MIC) of 0.06 µg/mL (≈ 0.172 µM). It also gave an MIC ([9]; S. aureus A15097 (Meth-res.), overnight 37° C.) of 8 µg/mL (≈ 23 µM), an MIC [10, 26] of 0.06 µg/mL (≈ 0.172 µM) and an MIC [11, 27] of 0.03 µg/mL (≈ 0.0861 µM).

Compound `C[C@@H](O)[C@H]1C(=O)N2C(C(=O)[O-])=C(SCCc3cccc[n+]3C)C[C@H]12` [Example 5, 3-(N-Methylpyridine-2-yl-ethanethio]-6α-[1-(R)-hydroxyethyl]-7-oxo-1-azabicyclo(3.2.0)hept-2-ene-2-carboxylate] has an MIC [1, 23] of 0.13 µg/mL (≈ 0.373 µM), an MIC [12, 28] of 0.13 µg/mL (≈ 0.373 µM) and an MIC [2, 24] of 0.06 µg/mL (≈ 0.172 µM). It also gave an MIC [3, 29] of 0.008 µg/mL (≈ 0.023 µM), an MIC [13, 30] of 0.004 µg/mL (≈ 0.0115 µM) and an MIC [4, 31] of 0.016 µg/mL (≈ 0.0459 µM). It also gave an MIC [4, 32] of 0.004 µg/mL (≈ 0.0115 µM), an MIC [5, 25] of 0.06 µg/mL (≈ 0.172 µM) and an MIC [6, 33] of 4 µg/mL (≈ 11.5 µM). It also gave an MIC [7, 34] of 0.06 µg/mL (≈ 0.172 µM), an MIC [14, 35] of 0.016 µg/mL (≈ 0.0459 µM) and an MIC [8, 36] of 0.06 µg/mL (≈ 0.172 µM). The MIC ([9]; S. aureus A15097 (Meth-res)) was 8 µg/mL (≈ 23 µM), the MIC ([15]; Escherichia coli, A15119, E. coli A15119, read-out: MIC) was 0.016 µg/mL (≈ 0.0459 µM) and the MIC [10, 26] was 0.03 µg/mL (≈ 0.0861 µM). It also gave an MIC [16, 37] of 0.004 µg/mL (≈ 0.0115 µM) and an MIC [11, 27] of 0.03 µg/mL (≈ 0.0861 µM).

Compound `CCC[n+]1ccc(CSC2=C(C(=O)[O-])N3C(=O)[C@H]([C@@H](C)O)[C@H]3C2)cc1` [Example 6, 3-(1-Propylpyridine-4-yl-methanethio)-6α-[1-(R)-hydroethyl]-7-oxo-1-azabicyclo(3.2.0)hept-2-ene-2-carboxylate] has an MIC [3, 29] of 0.03 µg/mL (≈ 0.0828 µM), an MIC [13, 30] of 0.004 µg/mL (≈ 0.011 µM) and an MIC [4, 32] of 0.03 µg/mL (≈ 0.0828 µM). It also gave an MIC [6, 33] of 8 µg/mL (≈ 22.1 µM), an MIC [17] greater than 32 µg/mL and an MIC [16, 37] of 0.004 µg/mL (≈ 0.011 µM). For the same compound, the MIC [18] was greater than 32 µg/mL.

For `C[C@@H](O)[C@H]1C(=O)N2C(C(=O)[O-])=C(SCc3cn(C)n[n+]3C)C[C@H]12` [Example 15 "A", 3-[4-(N,N-dimethyl-1,2,3-triazolium)methylthio]-6α-[1-(R)-hydroxyethyl]-7-oxo-1-azabicyclo(3.2.0)hept-2-ene-2-carboxylate], the MIC ([1]; Providencia rettgeri, P. rettgeri A22424, read-out: MIC) was 0.03 µg/mL (≈ 0.0887 µM), the MIC [12, 28] was 0.016 µg/mL (≈ 0.0473 µM) and the MIC ([2]; Klebsiella pneumoniae, K. pneumoniae A20468, read-out: MIC) was 0.008 µg/mL (≈ 0.0236 µM). For the same compound, the MIC [3, 29] was 0.004 µg/mL (≈ 0.0118 µM), the MIC ([19]; Enterococcus faecalis, A20688, S. faecalis A20688, read-out: MIC) was 0.13 µg/mL (≈ 0.384 µM) and the MIC [4, 31] was 0.03 µg/mL (≈ 0.0887 µM). It also gave an MIC [4, 32] of 0.03 µg/mL (≈ 0.0887 µM), an MIC [5, 25] of 0.008 µg/mL (≈ 0.0236 µM) and an MIC ([20]; Pseudomonas aeruginosa, read-out: MIC) of 0.03 µg/mL (≈ 0.0887 µM). It also gave an MIC [6, 33] of 0.5 µg/mL (≈ 1.48 µM), an MIC [7, 34] of 0.016 µg/mL (≈ 0.0473 µM) and an MIC [14, 35] of 0.004 µg/mL (≈ 0.0118 µM). The MIC ([8]; Morganella morganii, M. morganii A15153, read-out: MIC) was 0.03 µg/mL (≈ 0.0887 µM), the MIC ([15]; Escherichia coli, E. coli A15119, read-out: MIC) was 0.004 µg/mL (≈ 0.0118 µM) and the MIC [10, 26] was 0.008 µg/mL (≈ 0.0236 µM). The MIC [11, 27] was 0.008 µg/mL (≈ 0.0236 µM).

Work on `C[C@@H](O)C1C(=O)N2C(C(=O)[O-])=C(SCc3cn(C)n[n+]3C)CC12` (stereo partly drawn) [Example 15 "C", 3-[4-(N,N-dimethyl-1,2,3-triazolium)methylthio]-6α-[1-(R)-hydroxyethyl]-7-oxo-1-azabicyclo(3.2.0)hept-2-ene-2-carboxylate] yielded an MIC ([1]; P. rettgeri A22424) of 0.25 µg/mL (≈ 0.739 µM), an MIC ([12]; E. cloacae A-9656) of 0.13 µg/mL (≈ 0.384 µM) and an MIC ([2]; K. pneumoniae A20468) of 0.13 µg/mL (≈ 0.384 µM). It also gave an MIC ([3]; S. aureus A-9606 (Pen-res)) of 0.03 µg/mL (≈ 0.0887 µM), an MIC ([13]; S. pyogenes A-9604) of 0.0003 µg/mL (≈ 0.000887 µM) and an MIC ([19]; S. faecalis A20688) of 0.5 µg/mL (≈ 1.48 µM). The AUC [21] was 7300 ng·h/mL, the T1/2 [21] was 10 min and the MIC ([4]; S. aureus A-9537 +50% serum) was 0.06 µg/mL (≈ 0.177 µM). The MIC ([4]; S. aureus A-9537, no serum) was 0.016 µg/mL (≈ 0.0473 µM), the MIC [5] was 0.13 µg/mL (≈ 0.384 µM) and the MIC [20] was 0.5 µg/mL (≈ 1.48 µM). It also gave an MIC ([6]; P. aeruginosa A-9843a) of 8 µg/mL (≈ 23.6 µM), an MIC ([7]; E. cloacae A-9659) of 0.13 µg/mL (≈ 0.384 µM) and an MIC [14] of 0.03 µg/mL (≈ 0.0887 µM). The MIC ([8]; M. morganii A15153) was 0.25 µg/mL (≈ 0.739 µM), the MIC ([15]; E. coli A15119) was 0.06 µg/mL (≈ 0.177 µM) and the MIC [10] was 0.06 µg/mL (≈ 0.177 µM). It also gave an MIC ([16]; S. pneumoniae A-9585) of 0.0005 µg/mL (≈ 0.00148 µM), an MIC ([11]; P. mirabilis A-9900) of 0.06 µg/mL (≈ 0.177 µM) and an MIC ([22]; P. vulgaris A21559) of 0.06 µg/mL (≈ 0.177 µM).

In the case of `C[C@@H](O)[C@H]1C(=O)N2C(C(=O)[O-])=C(SCc3cn(CC(=O)O)n[n+]3C)C[C@H]12` [Example 18, Potassium 3-[4-(1-carboxylatomethyl-3-methyl-1,2,3-triazolium)-methanethio]-6α-[1-(R)-hydroxyethyl]-7-oxo-1-azabicyclo[3.2.0]hept-2-ene-2-carboxylate], the MIC [1, 23] is reported as 32 µg/mL, the MIC [12, 28] is reported as 125 µg/mL and the MIC [3, 29] is reported as greater than 125 µg/mL. For the same compound, the MIC [4, 32] was 32 µg/mL, the MIC [5, 25] was 32 µg/mL and the MIC [8, 36] was 32 µg/mL. It also gave an MIC [10, 26] of 32 µg/mL, an MIC [11, 27] of 32 µg/mL and an MIC ([22]; Proteus vulgaris, A21559, P. vulgaris A21559, read-out: MIC) of 32 µg/mL.
